In assay [1] the test system is Dvl-3 PDZ. The assay can be described thus: Binding constant by NMR titration. Details: species or system human. The conditions noted are these: from NMR K D values. From the text:
(§1) K D is the equilibrium dissociation constant.

Assay [2] addresses T1, Dvl-3 PDZ (Homo sapiens, UniProt Q92997).
T1 construct: spectra of Dvl-3 PDZ in the absence and presence of the compound; His-tag (cleaved yes); made in house
T1 sequence (Q92997 243-336): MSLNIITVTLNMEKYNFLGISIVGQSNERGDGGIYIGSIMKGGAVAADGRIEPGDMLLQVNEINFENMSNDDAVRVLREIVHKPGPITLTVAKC
In words: Binding constant by NMR titration. To be noted: by NMR; mean ± SD of at least six residues; read-out: K D Dvl-3 PDZ.
Text: as §1

The target in assay [3] is T2, Dvl-1 PDZ (Homo sapiens, UniProt O14640, C338S/V250I).
T2 sequence (O14640 245-338 V250I/C338S): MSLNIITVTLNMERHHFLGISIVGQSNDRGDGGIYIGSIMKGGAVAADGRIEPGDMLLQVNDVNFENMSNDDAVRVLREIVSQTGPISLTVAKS
In words: Binding constant by NMR titration. Details: made in house; host or cells: E. coli BL21 (DE3). The conditions noted are these: mean ± SD of at least six residues, read-out: K D Dvl-1 PDZ.
Procedure: Chemical shift perturbations were obtained by comparing the ^1H-^15N backbone resonances of protein alone to those of protein–ligand complex. […] 1 Δδ=[ΔδH]^2+[ΔδN5]^2/2 Here ΔδN and ΔδH are the amide nitrogen and amide proton chemical shift differences between the free and the bound states of the protein. In order to estimate binding constants, titration experiments monitored by NMR were done. A series of ^1H-^15N HSQC were recorded as a function of ligand concentration. Residues showing a continuous chemical shift change and for which the intensity remained strong were classified as being in fast exchange. […] [LT] is the total concentration of the compound, and [PT] is the total concentration of the protein. K D is the equilibrium dissociation constant. The K D values are reported as means ± standard deviations of at least six residues influenced upon binding of the ligand.

In assay [4] the target is T1, Dvl-3 PDZ. In words: NMR 1H-15N HSQC chemical shift perturbation. The assay is classed as binding. The conditions noted are these: Dvl-3 PDZ; average of the three strongest shifting cross peaks. How it is done:
The results of virtual screening were checked experimentally by comparing 2D ^1H-^15N HSQC (heteronuclear single quantum correlation) spectra of Dvl-3 PDZ in the absence and presence of the compound to elucidate ligand-induced changes of chemical shifts. Chemical shift perturbation differences ( Δ CSP, representing the average of the three strongest shifting cross peaks according to Eq. 1) were evaluated in cases where the residues responding strongest are inside the area defined by Fig. 1a. […] In most cases, the signals of residues S263, V287, and R320 (Fig. 1a) within the conserved binding site were most strongly perturbed (Fig. S2). With the Δ CSP of 0.12 ppm, the isoleucine-derived compound 1 ((2,3-dihydrobenzo[b][1,4]dioxin-6-yl)sulfonyl)-L-isoleucine containing a sulfonamide moiety was detected initially as one of the best “hits” according to chemical shift changes. The sulfonamide is a well-known moiety in drug discovery (Mathvink et al., 1999; Wu et al., 1999; Sleight et al., 1998; O'Brien et al., 2000; Tellew et al., 2003).
Two-dimensional ^1H-^15N HSQC spectra were used to screen a library of 212 compounds designed by the company Enamine for PDZ domains. 50 µM of ^15N -labelled protein samples was prepared in a 20 mM sodium phosphate buffer, containing 50 mM sodium chloride, 0.02 % ( w/v ) NaN3 , at pH 7.4. Stock solutions of small molecules were prepared in DMSO-d6 at a concentration of 160 mM. A ^1H-^15N HSQC spectrum of Dvl PDZ was acquired at 300 K with 5 % DMSO-d6 in the absence of ligand as reference spectrum. Mixtures of 16 compounds were added to ^15N -labelled Dvl PDZ at eightfold molar excess each. The final concentration of DMSO-d6 in the protein–ligand solutions was 5 %. Spectra were acquired with eight scans and 256 points in the indirect dimension. […] The active compound was obtained through successive deconvolution. Experiments were recorded on a Bruker DRX600 spectrometer equipped with a triple-resonance cryoprobe. The preparation of samples was done automatically by a Tecan Genesis RSP 150 pipetting robot. Spectra were analysed using the programs TOPSPIN and SPARKY (Goddard and Kneller, 2003).
50 µM of ^15N -labelled protein samples was prepared in a 20 mM sodium phosphate buffer containing 50 mM sodium chloride, 0.02 % ( w/v ) NaN3 , at pH 7.4. Stock solutions of small molecules were prepared in DMSO-d6 at a concentration of 160 mM. A ^1H-^15N HSQC spectrum of Dvl PDZ was acquired at 300 K with 5 % DMSO-d6 in the absence of ligand as reference spectrum. Mixtures of 16 compounds were added to ^15N -labelled Dvl PDZ at eightfold molar excess each. The final concentration of DMSO-d6 in the protein–ligand solutions was 5 %. Spectra were acquired with eight scans and 256 points in the indirect dimension.
The active compound was obtained through successive deconvolution. Experiments were recorded on a Bruker DRX600 spectrometer equipped with a triple-resonance cryoprobe. The preparation of samples was done automatically by a Tecan Genesis RSP 150 pipetting robot. Spectra were analysed using the programs TOPSPIN and SPARKY.

Assay [5] deals with Dvl-1 PDZ. Also noted: method as in Kim et al., 2016. To be noted: value from literature; ref Kim et al., 2016; read-out: K D Dvl-1 PDZ; cited from earlier work.

The values below come from publication PMC10539800, “Small-molecule inhibitors of the PDZ domain of Dishevelled proteins interrupt Wnt signalling” (Magnetic resonance, 2021).

Consider `O=C(O)c1cc(F)ccc1NS(=O)(=O)c1ccc2c(c1)CCCC2` [Compound 5], for which the “discrimination between Dvl-3 PDZ and Dvl-1 PDZ (in words)” value in the assay on Dvl-3 PDZ [1] is “did not distinguish”. Further, the Kd on Dvl-3 PDZ [2] is 141 ± 14.1 µM; on Dvl-1 PDZ [3] it was 160 ± 14.6 µM. In addition, on Dvl-3 PDZ [4], the “Chemical shift perturbation ΔCSP” value is given as over 0.2 ppm.
With `CCOC(=O)c1cc2cc(O)ccc2n1CC(=O)NCCN1CCCCC1` [Ky-02327, ethyl 5-hydroxy-1-(2-oxo-2-((2-(piperidin-1-yl)ethyl)amino)ethyl)-1H-indole-2-carboxylate], the Kd at Dvl-1 PDZ [5] was 8.3 ± 0.8 µM.
